This is an account of results in PubChem BioAssay (NCI).

Structures are written as SMILES.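 Compound exposure: 48 hours, 5 concentrations, 96-well plates. GI50 marks 50% less growth. The concentration for full growth arrest is given as TGI.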 Some results are limits rather than exact numbers.

Holding throughout (assay): inhibition of tumour cell growth, NCI panel, 48 h
Test [1] deals with SK-MEL-2 melanoma.
The test system of test [2] is K-562 leukemia.
Test [3] relates to CAKI-1 renal.
In test [4] the test system is 786-0 renal.
Test [5] relates to EKVX NSCLC.
In test [6] the test system is NCI-H460 lung.
The subject of test [7] is SF-295 CNS.
Test [8] relates to OVCAR-4 ovarian.
In test [9] the test system is SK-MEL-5 melanoma.
The test system of test [10] is HCC-2998 colon.

Consider `C#CCN=C(N/N=C/c1ccc([N+](=O)[O-])o1)NS(=O)(=O)c1cc(C)c(Cl)cc1SCC(N)=O`, for which the GI50 was 4.97 µM in test [1]; 23.7 µM in [2]; 25.7 µM in [3]; 19.4 µM in test [4]; 17.8 µM in test [5]; 12.5 µM in [6]. Moreover, the GI50 in [7] is 22.8 µM; in test [8] it was 16.5 µM; in [9], 4.14 µM. Further, the TGI in [1] is 18.3 µM; in [2], 52.5 µM; in [3] it was 45.1 µM; in test [4], 36.5 µM; in [5] it was 32.2 µM; in [6] it was 29.9 µM. The TGI in [7] was determined as 47.1 µM; in test [8], 33.3 µM; in test [9], 15.2 µM.
For `O=C(O)C(Cc1c[nH]c2ccccc12)N=Cc1nc(-c2ccccc2)oc1O` (configuration not stated), the TGI in test [1], in [2], in [4], in [5], in test [6] and in test [7] was greater than 100 µM each time. In addition, the TGI in test [8], in test [10] and in test [9] was greater than 100 µM in each case.
On to `COc1ccc(C(=O)N2CCc3c([nH]c4ccccc34)C2C(=O)O)o1` (configuration not stated), for which the TGI in [2], in [3], in test [4], in test [5], in test [7] and in [8] was greater than 10 µM in each case. Further, the TGI in test [10] and in test [9] was greater than 10 µM each time.
Regarding `CCCCCCCC/C=C/CCCCCCCC1=NC(C)(C)CN1C(C)C`, the GI50 in test [2] was 1.11 µM; in test [3], 1.16 µM; in test [4], 1.58 µM; in test [5], 1.56 µM; in test [6], 1.7 µM; in test [7], 1.64 µM. The figures for the GI50 in test [8], in [10] and in test [9] were 1.63 µM, 1.42 µM and 1.61 µM, respectively. Moreover, the TGI in [2] is 2.39 µM; in test [3] it was 2.38 µM; in [4], 2.93 µM; in test [5] it was 3.27 µM; in test [6] it was 3.07 µM; in [7], 3.07 µM. The TGI in test [8] turned out to be 2.98 µM; in test [10], 2.72 µM; in test [9], 2.96 µM.
`NC(CNO)C(=O)O` (configuration not stated): the TGI in [1], in [3], in test [4], in [5], in test [6] and in test [7] was greater than 100 µM throughout. For the same molecule, the TGI in test [8] and in [9] was greater than 100 µM throughout.
`Clc1cc(Cl)c(Cl)c(-c2nc(-c3cccnc3)cs2)c1`: the GI50 was 22.1 µM in [1]; greater than 100 µM in test [2]; 7.43 µM in [3]; 12.9 µM in test [4]; 40.2 µM in test [5]; 37.7 µM in test [6]. For the same molecule, the results for the GI50 in [7], in test [8] and in [9] were 26.2 µM, 25.6 µM and 23.6 µM, respectively. The TGI was 81.9 µM in [1]; greater than 100 µM in test [2]; 78.7 µM in test [3]; 29.8 µM in test [4]; greater than 100 µM in test [5]; greater than 100 µM in [6]. The TGI in test [7] is 70.4 µM; in test [8], 98.8 µM; in [9], greater than 100 µM.
In the case of `O=C(O)CC(Nc1ccccc1)C(=O)O` (configuration not stated), the TGI in [1], in test [2], in [3], in [4], in test [5] and in test [6] was greater than 100 µM each time. Besides, the TGI in test [7], in test [8] and in test [9] was greater than 100 µM throughout.
On to `CC(=O)OCc1cc(OC(C)=O)cnc1COC(C)=O`, for which the TGI in [1], in test [2], in test [3], in test [4], in test [5] and in [6] was greater than 100 µM each time. Besides, the TGI in [7], in [8] and in [9] was greater than 100 µM in each case.
Turning to `COc1ccc(/C=C2\CN(Cc3cn(CCCNc4ccnc5cc(Cl)ccc45)nn3)C/C(=C\c3ccc(OC)c(OC)c3)C2=O)cc1OC`, the GI50 was 2.32 µM in [1]; 0.459 µM in test [2]; 1.95 µM in [4]; 0.806 µM in [6]; 2.08 µM in [7]; 1.11 µM in test [8]. Also, the results for the GI50 in [10] and in test [9] were 1.41 µM and 2.71 µM, respectively. Also, the TGI was 6.84 µM in [1]; 3.64 µM in test [2]; 4.39 µM in test [4]; 2.12 µM in [6]; 4.1 µM in test [7]; 18.1 µM in [8]. Besides, the TGI in [10] amounted to 2.9 µM; in [9] it was 10.2 µM.
With `O=C(O)c1ccc2c(c1Nc1ccccc1)C(=O)c1ccccc1C2=O`, the GI50 was 51.7 µM in test [1]; 68.5 µM in test [2]; 16 µM in test [3]; 39.4 µM in test [4]; 19.9 µM in test [5]; 27.3 µM in test [6]. The GI50 was 20.3 µM in test [7], 86.1 µM in test [8] and 73.1 µM in [9]. The TGI is greater than 100 µM in [1]; greater than 100 µM in test [2]; 47.1 µM in test [3]; greater than 100 µM in test [4]; greater than 100 µM in test [5]; greater than 100 µM in [6]. Moreover, the TGI in test [7], in test [8] and in test [9] was greater than 100 µM each time.
As for `COC(=O)CCC(NC(=O)C(C)NC(=O)COC1C(O)C(OC(=O)CCNc2c3ccccc3nc3cccc([N+](=O)[O-])c23)OC(OCc2ccccc2)C1NC(C)=O)C(N)=O` (configuration not stated), the TGI in test [1] is 5.57 µM; in test [2], greater than 10 µM; in test [4] it was greater than 10 µM; in [5] it was greater than 10 µM; in [6] it was greater than 10 µM; in [7], greater than 10 µM. Further, the TGI is 5.8 µM in [10] and greater than 10 µM in test [9].
For `COC(=O)C1=CN=C(C(=O)OC)NN1`, the TGI in test [1], in test [2], in [3], in test [4], in test [6] and in [7] was greater than 100 µM in each case. Further, the TGI in test [8] and in test [9] was greater than 100 µM throughout.
